Values of other authors as cited in patent US20080153925A1, “Use of Amphiphilic Copolymers as Solubilising Agents” (BASF Aktiengesellschaft, priority 2004, published 2008).
Values after ≈ are worked out from the molar mass of the structure shown.

Settings: literature values

SMILES	Solubility in water (without copolymer)
Nc1ccc(S(=O)(=O)Nc2nccs2)cc1 [Sulfathiazole]	445 µg/mL (≈ 1740 µM)
CCCCC(CC)COC(=O)c1ccc(Nc2nc(Nc3ccc(C(=O)OCC(CC)CCCC)cc3)nc(Nc3ccc(C(=O)OCC(CC)CCCC)cc3)n2)cc1 (centres unmarked) [Uvinul ® T150, tris(2-ethylhexyl) 4,4′,4″-(1,3,5-triazine-2,4,6-triyltriimino)trisbenzoate]	0.007 µg/mL (≈ 0.0085 µM)
